Data as given in patent US6440691B1, “Melanins with improved ability to inhibit HIV replication” (Large Scale Biology Corporation, priority 1997, dated 2002).
Where a SMILES comes first, the peptide text is derived from it.

Experiments:
[1] = tested on: HIV-1 IIIB; assay: Anti-HIV activity: protection of MT-2 cells from viral-induced cytopathic effect, neutral red uptake; format: cell-based; conditions: Table 2, CPE after three days
Description: Dried melanins were analyzed for anti-HIV activity essentially as described by Montefiori, et al., 1988, J. Clin. Microbiol. […] In brief, the antiviral activities of the various melanins and melanin derivatives described in the present examples were measured in 96-well microdilution plates. Two-fold serial dilutions of melanins were made in triplicate in a total of 100 μl growth medium (RPMI-1640 containing 12% host-inactivated fetal bovine serum and 50 μg gentamicin/ml) per well. MT-2 cells (5×10^4) in 100 μl of growth medium were added to each well and incubated for 10 minutes. Fifty microliters of virus (5×10^4 TCID50/50 μl) were then added to all wells except for one row of eight noncytopathic control wells; these received growth medium in place of virus. Viral-induced cytopathic effect (CPE) was quantified three days later by vital dye (neutral red) uptake in remaining viable cells. Neutral red uptake is a linear function of cell viability with A540 of 0.025 to 0.85 corresponding to 2×10^4 to 25×10^4 viable cells/well (Montefiori, et al., 1988). Percent protection is defined as the difference in A540 between test wells (cells+melanin+virus) and virus control wells (cells+virus) divided by the difference in between cell control wells (cells only) and virus control wells.

[2] = tested on: HIV-1 (111a); design: unit not given here; conditions: Table 1; cited from earlier work
[3] = tested on: HIV-2 (ROD); design: unit not given here; conditions: Table 1; cited from earlier work

Compound	Effective Dose 50 EC50 [1] [µg/mL]	50% inhibitory concentration IC50, HIV-1 (111a) [2]	50% inhibitory concentration IC50, HIV-2 (ROD) [3]
NCC(=O)N[C@@H](Cc1ccc(O)cc1)C(=O)O [Gly-Tyr] (H-Gly-Tyr-OH)	>50		
á-cyclodextrin hexasulfate		26.2	1.9
á-cyclodextrin tetradecasulfate		0.8	1.0
â-cyclodextrin heptasulfate		3.0	1.8
ã-cyclodextrin hexadecasulfate		0.2	0.4
ã-cyclodextrin octasulfate		0.6	1.6
